Reference: patent publication EP0415456A2, “Xanthine compounds” (priority 1989, dated 1991)

Key:
male dd-strain mice = test: acute toxicity test; type: in vivo
Description: […]. The Minimum lethal dose (MLD) of the compounds was determined by observing whether or not the mice were alive after 7 days of the administration.

Adenosine A₁ Receptor = target: T1, Adenosine A₁ Receptor (Cavia porcellus, UniProt P47745); test: Adenosine A1 receptor binding (3H-CHA binding); design: species or system guinea pig; details: for Ratio of Ki Values [A₂/A₁]: A₂ Ki (rat corpus striatum) / A₁ Ki (guinea pig cerebrum); for Ki: calculated from Cheng-Prusoff's equation, ³H-CHA; for Ki / inhibition at 100 µM / inhibition at 10 µM: guinea pig cerebrum; for inhibition at 100 µM: concentration of tested compound 10⁻⁴ M; for inhibition at 100 µM / inhibition at 10 µM: ³H-CHA 1.1 nM; for inhibition at 10 µM: concentration of tested compound 10⁻⁵ M
T1 construct: from tissue; host or cells: guinea pig cerebrum membrane preparation
T1 sequence (P47745 1-326): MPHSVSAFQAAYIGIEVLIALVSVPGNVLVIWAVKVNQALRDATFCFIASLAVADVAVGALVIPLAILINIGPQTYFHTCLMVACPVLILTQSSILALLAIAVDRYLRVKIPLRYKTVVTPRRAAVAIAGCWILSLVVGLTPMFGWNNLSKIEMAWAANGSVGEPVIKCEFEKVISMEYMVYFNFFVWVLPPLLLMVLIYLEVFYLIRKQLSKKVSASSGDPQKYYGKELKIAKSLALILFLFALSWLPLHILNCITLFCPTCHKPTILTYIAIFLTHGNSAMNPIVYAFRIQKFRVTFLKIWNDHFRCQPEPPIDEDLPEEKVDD
Description: Cerebrum of a guinea pig was suspended into ice cooled 50 mM tris hydroxymethyl aminomethane hydrochloride (Tris HCl) buffer (pH = 7.7), by using Polytron homogenizer (manufactured by Kinematica Co.). The suspension was centrifuged (50,000 x g, 10 minutes), and the precipitate was resuspended by adding the same volume of 50 mM Tris HCl buffer. The suspension was centrifuged under the same conditions, and the precipitate obtained was suspended once again by adding 10 volumes of 50 mM Tris HCl. The tissue suspension was incubated at 37°C for 30 minutes in the presence of 0.02 units/mg tissue of adenosine deaminase (manufactured by Sigma Co.). The resulting tissue suspension was recentrifuged (50,000 x g, 10 minutes), and 50 mM Tris HCl was added to the precipitate to adjust the concentration of tissue to 10 mg (wet weight)/mℓ.
The mixture was incubated at 25°C for 90 minutes, and the resulting reaction was stopped by rapid vacuum filtration through a glass fiber filter (GF/C manufactured by Whatman Co.) followed by immediately washing three times with 5 mℓ each of ice cold 50 mM Tris HCl buffer. […] Its radioactivity was then determined by a scintillation counter (manufactured by Packard Instrument Co.).
The inhibition rate of the test compounds against the binding of A₁ […] (³H-CHA binding) was calculated from the following equation: [formula]
• 1. […] The inhibition constant (Ki value) shown in the table was calculated from Cheng-Prusoff's equation.

A₂ receptor = target: T2, A₂ receptor (Rattus norvegicus, UniProt P30543); test: Adenosine A2 receptor binding (3H-NECA binding); details: for inhibition at 10 µM / inhibition at 100 µM: read-out: A₂ Receptor Inhibition (%); for Ki: ³H-NECA with CPA, rat corpus striatum, read-out: A₂ Receptor Ki
T2 construct: A precipitate was prepared from rat corpus striatum; from tissue; host or cells: rat corpus striatum membrane preparation
Description: A precipitate was prepared from rat corpus striatum in a similar manner as in 1) above. The precipitate was suspended by adding a 50 mM Tris HCl buffer containing 10 mM magnesium chloride and 0.02 unit/mg (tissue) of adenosine deaminase (manufactured by Sigma Co.) to adjust the concentration of tissue to 5 mg (wet weight)/mℓ.
The mixture was incubated at 25°C within 120 minutes. The resulting mixture was treated in the same manner as in 1) above to determine its radioactivity.
The inhibition rate of the test compound against the binding of A₂ receptor (³H-NECA binding) was calculated from the following equation: [formula]

Wistar rats = test: diuretic effect; type: in vivo; details: 25 mg/kg oral, urine collected for 6 hours; for Increase in K⁺ excretion (%) / Increase in Na⁺excretion (%) / Increase in Urine (%): relative to control; for Na⁺/K⁺: relative value of control (control 1.00)
Description: Wistar rats (male: 150 - 300 g) were starved for 18 hours prior to the administration of the test compounds. […] Urine was collected for 6 hours after the administration. Urine volume was measured and the electrolytes (Na+ and K+) in the urine were determined with a flame photome[…], Hitachi Ltd., Japan). All parameters are expressed as relative values of control.

[1] = tested on: glycerol-induced renal failure model; test: renal-protecting effect (glycerol-induced renal failure model); type: in vivo; details: male Wistar rats; for suppression of increases of the serum creatinine and of urine-nitrogen: 0.01 - 10 mg/kg i.p., 24 hours after 50% glycerol s.c. (p < 0.05); for pathological examination of removed kidneys: state of kidneys: i.p., left kidney removed 24 hours after 50% glycerol s.c.
Description: A renal failure is a state wherein the renal function is lowered and the homeostasis of a body fluid can be no more maintained. It is known that an acute renal failure characteristic of uriniferous tubule disorder is caused by subcutaneous or intramuscular injection of glycerol to rats [Can. J. Physiol.
Male Wistar rats were kept deprived or water for 18 hours, and served for the test. A test compound was intraperitoneally administered to the rats (dosage: 1 mℓ/kg) and the rats were anesthetized with ether and 50% glycerol was subcutaneously administered (dosage: 0.8mℓ/100g) to the rats, pinching the dorsal skin. Twenty four hours after the administration of glycerol, the rats were anesthetized with ether and 5 mℓ of blood were collected from the abdominal aorta. The collected blood was allowed to stand for 30 minutes or longer and then centrifuged at 3,000 rpm for 10 minutes, and the amounts of the serum creatinine and urine-nitrogen (UN) contained in the serum were determined by auto analyzer (Olympus AU510) or measured by a creatinine test Wako (Jaffé method) and UN Test Wako (diacetylmonooxime direct method). Both are manufactured by Wako Pure Chemicals Co.
On the other hand, the left kidneys of the blood-sampled rats were removed and placed in formalin-filled vial bottles, and used as samples for the pathological examination.

[2] = tested on: zig-zag strips of the trachea; test: effects on passive Schultz-Dale reaction (antigen-induced contraction of sensitized trachea strips); design: species or system guinea pigs; details: Cavia porcellus; concentration to produce 50% relaxation of EWA (1µg/mℓ)-contracted trachea strips of passively sensitized guinea pigs; read-out: Passive S-D Reaction IC₅₀
Description: After 24 hours, the guinea pigs were stunned and exsanguinated, and then trachea were removed. The zig-zag strips of the trachea were prepared by the method of Emmerson, et al. [J. Pharm. […] The strips were suspended in Krebs-Henseleit solution at 37°C […] Antigen (EWA) was then introduced in the solution (final concentration; 1μg/ml), and the contraction was measured by […] After the contraction reached stable plateau, the compounds were cumulatively added in order to get concentration-relaxation curves. […]

T2 sequence (P30543 whole entry): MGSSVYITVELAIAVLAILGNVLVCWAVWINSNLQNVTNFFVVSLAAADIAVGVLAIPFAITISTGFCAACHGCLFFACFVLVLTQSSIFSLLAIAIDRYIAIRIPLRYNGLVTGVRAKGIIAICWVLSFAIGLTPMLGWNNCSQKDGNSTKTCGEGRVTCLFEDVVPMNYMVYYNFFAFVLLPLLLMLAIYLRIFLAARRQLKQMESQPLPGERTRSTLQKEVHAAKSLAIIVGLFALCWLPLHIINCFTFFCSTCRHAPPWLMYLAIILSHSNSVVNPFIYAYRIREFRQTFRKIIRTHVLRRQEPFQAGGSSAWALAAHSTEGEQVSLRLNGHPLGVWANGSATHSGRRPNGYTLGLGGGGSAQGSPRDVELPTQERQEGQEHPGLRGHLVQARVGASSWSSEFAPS

SMILES	Minimum lethal dose (MLD) (male dd-strain mice; mouse, in vivo, 10080 min)	Ratio of Ki Values [A₂/A₁] (Adenosine A₁ Receptor)	Ki (Adenosine A₁ Receptor) [nM]	inhibition at 100 µM (Adenosine A₁ Receptor) [%]	inhibition at 10 µM (Adenosine A₁ Receptor) [%]	inhibition at 10 µM (A₂ receptor) [%]	inhibition at 100 µM (A₂ receptor) [%]	Ki (A₂ receptor) [nM]	Increase in K⁺ excretion (%) (Wistar rats)	Increase in Na⁺excretion (%) (Wistar rats)	Increase in Urine (%) (Wistar rats)	Na⁺/K⁺ (Wistar rats)	Minimum lethal dose (MLD) (male dd-strain mice; 300 mg/kg orally administered, male dd-strain mice, observed 7 days after administration)	suppression of increases of the serum creatinine and of urine-nitrogen [1]	pathological examination of removed kidneys: state of kidneys [1]	IC50 [2] [nM]
CCCn1c(=O)c2[nH]c([C@@H]3CC[C@H]4CCC[C@H]43)nc2n(CCC)c1=O (relative stereo) [Compound 5, 8-[(1R*,2R*,5R*)-Bicyclo[3.3.0]octan-2-yl]-1,3-dipropylxanthine]	more than 300 mg/kg	86.8	3.8	99	99	91	99	330	32	109	88	1.58	–	–	–	–
CCCn1c(=O)[nH]c(=O)c2[nH]c([C@@H]3CC[C@H]4CCC[C@H]43)nc21 (relative stereo) [Compound 23, 8-[(1R*,2R*,5R*)-Bicyclo[3.3.0]octan-2-yl]-3-propylxanthine]	–	–	–	–	–	–	–	–	–	–	–	–	more than 300 mg/kg	significantly suppressed	significantly improved	–
CCCn1c(=O)c2nc(C34CC5CC(CC3C5)C4)[nH]c2n(CCC)c1=S [Compound 31, 8-(Noradamantan-3-yl)-1,3-dipropyl-2-thioxanthine]	more than 300 mg/kg	–	–	–	–	–	–	–	56	126	115	1.44	–	significantly suppressed	significantly improved	–
CCCn1c(=O)c2[nH]c(C34CC5CC(CC(C5)C3)C4)nc2n(CCC)c1=O [Compound 13, 8-(Adamantan-1-yl)-1,3-dipropylxanthine]	more than 300 mg/kg	–	7.8	100	100	63	71	–	37	186	129	2.09	–	significantly suppressed	significantly improved	–
CCCn1c(=O)c2[nH]c([C@H]3C[C@@H]4C=C[C@@H]3C4)nc2n(CCC)c1=O (relative stereo) [Compound 1, 8-[(1R*,4S*,5S*)-2-Bicyclo[2.2.1]hepten-5-yl]-1,3-dipropylxanthine]	more than 300 mg/kg	92.7	5.5	99	99	88	97	510	36	73	106	1.27	–	–	–	–
CCCn1c(=O)[nH]c(=O)c2[nH]c(C34CC5CC(CC3C5)C4)nc21 [Compound 25, 8-(Noradamantan-3-yl)-3-propylxanthine]	–	–	–	–	–	–	–	–	–	–	–	–	–	significantly suppressed	significantly improved	17300
CCCn1c(=O)c2[nH]c(C34CC5CC(CC3C5)C4)nc2n(CCC)c1=O [Compound 14, 8-(Noradamantan-3-yl)-1,3-dipropylxanthine]	more than 300 mg/kg	–	–	101	101	63	77	380	68	244	315	2.05	–	significantly suppressed	significantly improved	–
CCCn1c(=O)c2[nH]c([C@@H]3C[C@@H]4C=C[C@@H]3C4)nc2n(CCC)c1=O (relative stereo) [Compound 2, 8-[(1R*,4S*,5R*)-2-bicyclo[2.2.1]hepten-5-yl]-1,3-dipropylxanthine]	more than 300 mg/kg	–	–	–	–	–	–	–	67	109	87	1.25	–	–	–	–
CCCn1c(=O)c2[nH]c([C@H]3C[C@H]4CC[C@@H]3C4)nc2n(CCC)c1=O (relative stereo) [Compound 3, 8-[(1R*,2S*,5S*)-Bicyclo[2,2,1]heptan-2-yl]-1,3-dipropylxanthine]	more than 300 mg/kg	75.0	4.4	100	100	83	90	330	29	137	154	1.84	–	–	–	–
CCCn1c(=O)[nH]c(=S)c2[nH]c(C34CC5CC(CC3C5)C4)nc21 [Compound 26, 8-(Noradamantan-3-yl)-3-propyl-6-thioxanthine]	–	–	–	–	–	–	–	–	–	–	–	–	–	–	–	22700
CCCn1c(=O)c2c(nc([C@H]3C[C@@H]4C=C[C@@H]3C4)n2C)n(CCC)c1=O (relative stereo) [Compound 17, 8-[(1R*,4S*, 5S*)-2-Bicyclo[2.2.1]hepten-5-yl]-1,3-dipropyl-7-methylxanthine]	more than 300 mg/kg	–	–	–	–	–	–	–	51	107	155	1.37	–	significantly suppressed	significantly improved	–
